{
  "source": "paper PMC11301271",
  "about": "(FEBS Open Bio, 2024)",
  "key": {"human MK [1]": {"target": "T1, human MK (Homo sapiens, UniProt Q03426)", "T1 construct": "His6 (N); made in house; host or cells: E. coli BL21(DE3)", "T1 sequence (Q03426 whole entry)": "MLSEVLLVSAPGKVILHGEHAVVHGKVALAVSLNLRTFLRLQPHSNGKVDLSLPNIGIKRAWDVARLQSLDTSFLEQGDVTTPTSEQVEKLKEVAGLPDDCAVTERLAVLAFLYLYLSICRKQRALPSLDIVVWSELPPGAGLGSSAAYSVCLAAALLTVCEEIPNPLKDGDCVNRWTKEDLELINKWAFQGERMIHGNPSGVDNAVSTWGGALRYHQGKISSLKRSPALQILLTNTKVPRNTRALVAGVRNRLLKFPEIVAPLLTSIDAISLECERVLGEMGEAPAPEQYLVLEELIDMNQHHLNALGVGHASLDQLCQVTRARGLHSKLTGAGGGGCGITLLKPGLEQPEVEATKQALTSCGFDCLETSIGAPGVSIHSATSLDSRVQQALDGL", "assay": "MK coupled enzyme assay (pyruvate kinase/lactate dehydrogenase): inhibitor screening and IC50", "format": "biochemical", "conditions": "for IC50: read-out: IC50 for MK inhibition; for MK inhibition, result in words: screening, 10 μM compound", "experimental": "A pET‐15b plasmid encoding human MK (UniProt Q03426) with an N‐terminal His6‐tag was transformed into E. coli BL21(DE3) cells (New England Biolabs, Whitby, ON, Canada). The cells were cultured in LB at 37 °C until the OD600 of the culture reached 0.6. Expression of the recombinant enzyme was induced by 0.1 mM IPTG for 6 h at 37 °C. The cells were lysed by sonication, and the lysate was subjected to Ni‐affinity chromatography (HisTrap HP, Cytiva, Vancouver, BC, Canada) followed by size exclusion chromatography (HiLoad Superdex 200 PG, Cytiva) (Fig. 2A). […] The purified enzyme was flash‐frozen in liquid nitrogen and stored at −80 °C. The final sample buffer (i.e., the size exclusion buffer) consisted of 10 mM HEPES (pH 7.5), 500 mM NaCl, 2 mM β‐mercaptoethanol, and 5% glycerol.\n(§1) MK activity was measured by using a coupled enzyme assay as previously described. The reporter enzymes, pyruvate kinase and lactate dehydrogenase, were purchased as a pre‐mixed buffered solution from MilliporeSigma. […] All reactions were carried out at 32 °C in triplicate unless otherwise noted. Each reaction was initiated by adding 10 μL of MK (50 μg mL^−1; diluted from the −80 °C stock in 50 mM HEPES, pH 7.5) to 990 μL of the reaction buffer containing all the other components except MK (pre‐incubated at 32 °C for 5 min) and immediately transferring to a 1 mL disposable polystyrene cuvette (Fisherbrand) pre‐placed in the temperature‐controlled cell holder of an Agilent 8453 UV–visible Spectroscopy System. Blank reactions were added with 10 μL of 50 mM HEPES (pH 7.5) only. Reaction progress was continuously monitored by measuring the A340 for 1 min. To convert the measured absorbance to product concentration, an absorption coefficient of NADH determined from a calibration curve (5.4107 cm^−1 mM ^−1) was used. Initial rate experiments were conducted by varying the concentration of one substrate while keeping the other at a saturating concentration of 5 mM. Kinetic parameters were determined by fitting the rate data to the Michaelis–Menten model (Eqn 1), vi=VmaxS/Km+S, where [S] represents the concentration of the varied substrate. Data analysis was performed with […] PRISM software (GraphPad Software, Boston, MA, USA).\nTo prepare master stock solutions, the phosphonate compounds were dissolved in Milli‐Q water to a concentration of 20 mM, either as monosodium salts (monophosphonate compounds) or as trisodium salts (bisphosphonate compounds). Their effects on MK activity were evaluated by using the coupled enzyme assay described above. Each compound was tested at two concentrations: 1 and 10 μM.\nTo determine the IC 50, a more refined inhibition response across a broader range of inhibitor concentrations was measured. Typically, nine different inhibitor concentrations spanning a 10 000‐fold concentration range were used. Dose–response curves were generated by fitting the inhibition data to the following three‐parameter dose–response equation (Eqn 2), where Max and Min denote the maximum and minimum response, respectively: Response=Min+Max−Min/1+I/IC50."}, "FPPS [2]": {"target": "T2, FPPS (Homo sapiens, UniProt P14324)", "T2 sequence (P14324 1-419)": "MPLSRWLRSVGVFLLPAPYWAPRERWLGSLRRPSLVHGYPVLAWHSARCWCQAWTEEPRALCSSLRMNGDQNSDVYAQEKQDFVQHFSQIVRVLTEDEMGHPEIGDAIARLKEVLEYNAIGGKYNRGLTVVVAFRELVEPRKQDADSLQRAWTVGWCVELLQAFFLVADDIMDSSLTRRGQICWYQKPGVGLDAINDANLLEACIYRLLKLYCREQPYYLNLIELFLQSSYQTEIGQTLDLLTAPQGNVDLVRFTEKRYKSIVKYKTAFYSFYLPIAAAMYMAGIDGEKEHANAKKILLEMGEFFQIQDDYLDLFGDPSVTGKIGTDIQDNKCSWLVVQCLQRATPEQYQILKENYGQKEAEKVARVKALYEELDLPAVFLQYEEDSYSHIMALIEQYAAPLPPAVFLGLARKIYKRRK", "conditions": "read-out: Kd, binding affinity of FPP for FPPS; ref [21]; cited from earlier work"}, "human MK [3]": {"target": "T1, human MK", "assay": "Steady-state kinetics of human MK (Michaelis-Menten, substrates)", "format": "biochemical", "conditions": "one substrate varied, the other fixed at 5 mM; 32 °C; read-out: Km of recombinant MK for the substrate"}, "FPPS [4]": {"target": "T2, FPPS", "assay": "Inhibition of FPPS", "format": "biochemical", "conditions": "read-out: inhibition of FPPS at 10 μM; 10 μM compound; unpublished data"}, "human MK [5]": {"target": "T1, human MK", "assay": "Mode of inhibition and Ki determination, initial rate experiments with MK", "format": "biochemical", "conditions": "for Ki' (ATP-bound enzyme), mixed inhibition model with respect to ATP: ATP varied 0.05-1 mM, MVA 5 mM; for Ki', uncompetitive inhibition model with respect to MVA: MVA varied 0.01-0.2 mM, ATP 5 mM", "experimental": "as §1\nIn all experiments, one substrate was added at a constant concentration of 5 mM. […] Each inhibitor was tested at four different concentrations ranging from 0 to 200 nM. Data analysis was performed with […] PRISM software. The initial rates were fitted to steady‐state equations describing competitive inhibition model (Eqn 3), vi=VmaxS/Km1+I/Ki+S, noncompetitive inhibition model (Eqn 4), vi=VmaxS/1+I/Ki/Km+S, uncompetitive inhibition model (Eqn 5), vi=VmaxS/1+I/Ki^′/Km/1+I/Ki^′+S, and mixed inhibition model (Eqn 6), vi=VmaxS/1+I/Ki^′/Km1+I/Ki/1+I/Ki^′+S, where [S] represents the concentration of the varied substrate. The selection of the most appropriate models was determined through the extra sum‐of‐squares F test as implemented in the software."}, "human MK [6]": {"target": "T1, human MK", "design": "method as in PMID 9325256, PMID 18302342", "conditions": "ref [19], [20]; read-out: Km of MK for the substrate, previously reported; cited from earlier work"}},
  "note": "“And” between values parts separate entries of the source, which are not always exact repeats. Identical values can stand only once. Like-named read-outs stand apart in the source and are kept apart here.",
  "data": [
    {"smiles": "CC(C)=CCC/C(C)=C/CC/C(C)=C/CO[P@@](=O)(O)OP(=O)(O)O", "note": "(stereo in doubt) [FPP, farnesyl pyrophosphate, reference compound]", "values": [
      {"measurement": "IC50", "setting": "human MK [1]", "result": 12, "unit": "nM"},
      {"measurement": "Kd", "setting": "FPPS [2]", "result": "5 to 6", "unit": "µM"}
    ]},
    {"smiles": "Nc1ncnc2c1ncn2[C@@H]1O[C@H](COP(=O)(O)OP(=O)(O)OP(=O)(O)O)[C@@H](O)[C@H]1O", "note": "[ATP]", "values": [
      {"measurement": "Km", "setting": "human MK [3]", "result": 61, "unit": "µM"}
    ]},
    {"smiles": "O=P(O)(O)CNc1ncnc2sccc12", "note": "[Compound 1]", "values": [
      {"measurement": "MK inhibition, result in words", "setting": "human MK [1]", "result": "Inactive at 10 μM"}
    ]},
    {"smiles": "COc1cc(C)c(Cl)cc1-c1cc2c(NC(c3ccccc3)P(=O)(O)O)ncnc2s1", "note": "(stereo not drawn) [Compound 2]", "values": [
      {"measurement": "IC50", "setting": "human MK [1]", "result": 1900, "unit": "nM"}
    ]},
    {"smiles": "Cc1ccc(-c2cc3c(NC(Cc4ccccc4)P(=O)(O)O)ncnc3s2)cc1Cl", "note": "(stereo not drawn) [Compound 6]", "values": [
      {"measurement": "IC50", "setting": "human MK [1]", "result": 2500, "unit": "nM"}
    ]},
    {"smiles": "Cc1ccc(-c2cc3c(NC(Cc4cccc(F)c4)P(=O)(O)O)ncnc3s2)cc1OCC(C)C", "note": "(stereo not drawn) [Compound 9, (2‐(3‐Fluorophenyl)‐1‐((6‐(3‐isobutoxy‐4‐methylphenyl)thieno[2,3‐d]pyrimidin‐4‐yl)amino)ethyl)phosphonic acid]", "values": [
      {"measurement": "IC50", "setting": "human MK [1]", "result": 1000, "unit": "nM"}
    ]},
    {"smiles": "Cc1ccc(-c2cc3c(NC(Cc4ccccc4)P(=O)(O)O)ncnc3s2)cc1OC1CC1", "note": "(stereo not drawn) [Compound 10, (1‐((6‐(3‐Cyclopropoxy‐4‐methylphenyl)thieno[2,3‐d]pyrimidin‐4‐yl)amino)‐2‐phenylethyl)phosphonic acid]", "values": [
      {"measurement": "IC50", "setting": "human MK [1]", "result": 1600, "unit": "nM"}
    ]},
    {"smiles": "O=P(O)(O)C(Nc1ncnc2sc(-c3ccc(C(F)(F)F)cc3)cc12)c1ccccc1", "note": "(stereo not drawn) [Compound 11, (phenyl((6‐(4‐(trifluoromethyl)phenyl)thieno[2,3‐d]pyrimidin‐4‐yl)amino)methyl)phosphonic acid]", "values": [
      {"measurement": "IC50", "setting": "human MK [1]", "result": 42, "unit": "nM"},
      {"measurement": "inhibition at 10 µM", "setting": "FPPS [4]", "result": "< 50", "unit": "%"},
      {"measurement": "Ki", "setting": "human MK [5]", "result": 22, "unit": "nM"},
      {"measurement": "Ki'/Ki ratio", "setting": "human MK [5]; ATP as varied substrate, mixed inhibition model", "result": "~ 17"},
      {"measurement": "Ki' (ATP-bound enzyme), mixed inhibition model with respect to ATP", "setting": "human MK [5]", "result": 380, "unit": "nM"},
      {"measurement": "Ki', uncompetitive inhibition model with respect to MVA", "setting": "human MK [5]", "result": 140, "unit": "nM"}
    ]},
    {"smiles": "O=P(O)(O)C(Nc1ncnc2sc(-c3ccc(F)cc3)cc12)c1ccccc1", "note": "(stereo not drawn) [Compound 12, (((6‐(4‐fluorophenyl)thieno[2,3‐d]pyrimidin‐4‐yl)amino)(phenyl)methyl)phosphonic acid]", "values": [
      {"measurement": "IC50", "setting": "human MK [1]", "result": 46, "unit": "nM"}
    ]},
    {"smiles": "COc1cccc(OC)c1-c1cc2c(NC(c3ccccc3)P(=O)(O)O)ncnc2s1", "note": "(stereo not drawn) [Compound 13, (((6‐(2,6‐dimethoxyphenyl)thieno[2,3‐d]pyrimidin‐4‐yl)amino)(phenyl)methyl)phosphonic acid]", "values": [
      {"measurement": "IC50", "setting": "human MK [1]", "result": 3300, "unit": "nM"}
    ]},
    {"smiles": "O=P(O)(O)C(Nc1ncnc2sc(-c3cccc(C(F)(F)F)c3)cc12)c1ccccc1", "note": "(stereo not drawn) [Compound 14, (phenyl((6‐(3‐(trifluoromethyl)phenyl)thieno[2,3‐d]pyrimidin‐4‐yl)amino)methyl)phosphonic acid]", "values": [
      {"measurement": "IC50", "setting": "human MK [1]", "result": 120, "unit": "nM"}
    ]},
    {"smiles": "COc1cc(C)c(F)cc1-c1cc2c(NC(c3ccccc3)P(=O)(O)O)ncnc2s1", "note": "(stereo not drawn) [Compound 15]", "values": [
      {"measurement": "IC50", "setting": "human MK [1]", "result": 2300, "unit": "nM"}
    ]},
    {"smiles": "Cn1cc(CCP(=O)(O)O)c2cc(-c3ccc(C(F)(F)F)cc3)ccc21", "note": "[Compound 16, 2‐(1‐Methyl‐5‐(4‐(trifluoromethyl)phenyl)‐1H‐indol‐3‐yl)ethylphosphonic acid]", "values": [
      {"measurement": "IC50", "setting": "human MK [1]", "result": 8.1, "unit": "nM"},
      {"measurement": "inhibition at 10 µM", "setting": "FPPS [4]", "result": "< 50", "unit": "%"},
      {"measurement": "Ki", "setting": "human MK [5]", "result": 3.1, "unit": "nM"},
      {"measurement": "Ki' (ATP-bound enzyme), mixed inhibition model with respect to ATP", "setting": "human MK [5]", "result": 14, "unit": "nM"},
      {"measurement": "Ki', uncompetitive inhibition model with respect to MVA", "setting": "human MK [5]", "result": 10, "unit": "nM"}
    ]},
    {"smiles": "O=P(O)(O)C(Nc1ncnc2sc(-c3cccc(C(F)(F)F)c3)cc12)P(=O)(O)O", "note": "[Compound 17]", "values": [
      {"measurement": "MK inhibition, result in words", "setting": "human MK [1]", "result": "Inactive at 10 μM"}
    ]},
    {"smiles": "CC(C)=CCC/C(C)=C/CC/C(C)=C/COP(=O)(O)OP(=O)(O)O", "note": "[FPP, farnesyl pyrophosphate, reference compound]", "values": [
      {"measurement": "inhibition at 1 µM", "setting": "human MK [1]; read-out: inhibition of the MK reaction at 1 μM", "result": 96, "unit": "%"}
    ]},
    {"smiles": "C[C@@](O)(CCO)CC(=O)O", "note": "[MVA, mevalonic acid]", "values": [
      {"measurement": "Km", "setting": "human MK [3]", "result": 37, "unit": "µM"},
      {"measurement": "Km", "setting": "human MK [6]", "result": "24 µM and 40.8 µM"}
    ]}
  ]
}
